# Results from paper PMC3506384 (Cancer chemotherapy and pharmacology, 2011).
# Read-outs that look alike come from different tables or passages of the source.
# Key:
# Phase I dose escalation = assay type: in vivo, human
# clinical = conditions: human, plasma; for half-life: intravenous
# [1] = cited from earlier work
# [2] = co-administration of ketoconazole; cited from earlier work
# [3] = cited from earlier work; remark: listed apart in the source
# [4] = Bortezomib plasma pharmacokinetics, non-compartmental, LC-MS/MS
# [5] = Serum anticonvulsant levels in group A patients; assay type: in vivo, human; conditions: all 3 patients in group A; at PK sampling on days 2 and 9 of cycle 1
# [6] = patients not taking concomitant HEIAs (group B)
# [7] = Day 2, bortezomib 1.0 mg/m^2, group A (taking HEIAs), N 1
# [8] = Day 2, bortezomib 1.0 mg/m^2, group B (not taking HEIAs), N 13, median (range)
# [9] = Day 2, bortezomib 1.3 mg/m^2, group A (taking HEIAs), N 1
# [10] = Day 2, bortezomib 1.3 mg/m^2, group B (not taking HEIAs), N 6, median (range)
# [11] = Day 2, bortezomib 1.5 mg/m^2, group A (taking HEIAs), N 1
# [12] = Day 2, bortezomib 1.5 mg/m^2, group B (not taking HEIAs), N 1
# [13] = Day 9, bortezomib 1.0 mg/m^2, group A (taking HEIAs), N 1
# [14] = Day 9, bortezomib 1.0 mg/m^2, group B (not taking HEIAs), N 13, median (range)
# [15] = Day 9, bortezomib 1.3 mg/m^2, group A (taking HEIAs), N 1
# [16] = Day 9, bortezomib 1.3 mg/m^2, group B (not taking HEIAs), N 6, median (range)
smiles,measurement,setting,value
CC(C)C[C@H](NC(=O)[C@H](Cc1ccccc1)NC(=O)c1cnccn1)B(O)O [bortezomib],MTD of bortezomib in combination with temozolomide,"Phase I dose escalation; patients not taking HEIAs, days 2, 5, 9, 12 of a 28-day cycle",1.3 mg/m^2
same,"recommended dose for phase 2 studies, bortezomib in the combination","Phase I dose escalation; patients not taking HEIAs, days 2, 5, 9 and 12, every 28 days",1.3 mg/m^2
same,MTD of bortezomib in combination with temozolomide,Phase I dose escalation; [6],1.3 mg/m^2/dose
same,half-life,clinical; 1 mg/m2,11.3 h
same,half-life,clinical; 1.3 mg/m2,12.4 h
same,half-life,clinical; 1.5 mg/m2,6.4 h
same,Cmax,"clinical; iv, 1 mg/m^2",65.5 ng/mL
same,MTD of single agent bortezomib,[1]; recurrent malignant glioma patients not taking HEIAs,1.7 mg/m^2
same,MTD of single agent bortezomib,[1]; recurrent malignant glioma patients receiving concurrent HEIAs,2.5 mg/m^2
same,mean increase in systemic exposure of bortezomib with ketoconazole,[2],35%
same,individual MTD (single agent),[3]; bortezomib alone,1.6 mg/m^2
same,AUC 0–∞,[4]; [7],20.8 µg·h/L
same,CLsys,[4]; [7],115.7 L/h
same,AUC 0–∞,[4]; [8],33.6 (21–106) ug/l × h
same,CLsys,[4]; [8],46.6 (17–90) l/h
same,Elimination T1/2,[4]; [8],12.7 (2–21) h
same,AUC 0–∞,[4]; [9],40.4 µg·h/L
same,CLsys,[4]; [9],64.4 L/h
same,AUC 0–∞,[4]; [10],56.1 (34–97) ug/l × h
same,CLsys,[4]; [10],44.0 (21–81) l/h
same,Elimination T1/2,[4]; [10],18.8 (13–26) h
same,AUC 0–∞,[4]; [11],30.6 µg·h/L
same,CLsys,[4]; [11],94.8 L/h
same,AUC 0–∞,[4]; [12],137.4 µg·h/L
same,CLsys,[4]; [12],16.0 L/h
same,AUC 0–∞,[4]; [13],30.7 µg·h/L
same,CLsys,[4]; [13],78.1 L/h
same,Elimination T1/2,[4]; [13],15.5 h
same,AUC 0–∞,[4]; [14],86.8 (32–216) ug/l × h
same,CLsys,[4]; [14],20.7 (9–59) l/h
same,AUC 0–∞,[4]; [15],72.4 µg·h/L
same,CLsys,[4]; [15],35.9 L/h
same,Elimination T1/2,[4]; [15],11.1 h
same,AUC 0–∞,[4]; [16],120.0 (78–206) ug/l × h
same,CLsys,[4]; [16],21.2 (10–33) l/h
same,Elimination T1/2,[4]; [16],18.9 (12–41) h
same,CLsys on day 9 as percent of the CLsys on day 2,"[4]; median percent change, P < 0.01, paired Wilcoxon test, all patients with PK",51%
same,rapid initial decline of plasma concentration,"[4]; within the first few hours after the dose, both groups",100 fold
Cn1nnc2c(C(N)=O)ncn2c1=O [temozolomide],"recommended dose for phase 2 studies, temozolomide in the combination","Phase I dose escalation; patients not taking HEIAs, days 1–5, every 28 days",200 mg/m^2
same,MTD of temozolomide in combination with bortezomib,"Phase I dose escalation; patients not taking HEIAs, days 1–5 of a 28-day cycle",200 mg/m^2
same,MTD of temozolomide in combination with bortezomib,Phase I dose escalation; [6],200 mg/m^2/dose
same,individual MTD (single agent),[3]; temozolomide alone,200 mg/m^2
O=C1NC(=O)C(c2ccccc2)(c2ccccc2)N1 [phenytoin],serum phenytoin levels,[5],within the therapeutic range
